Experimental data as given in PubChem BioAssay AID248 (DTP/NCI, 2004).
Toxic doses and inconclusive results are not listed. Rule as the data show it: active = T/C of 150% or more; inactive = T/C below 125%.

System: L1210 leukemia ip in BDF1 mice, survival T/C
Test: NCI In Vivo Anticancer Drug Screen. Data for tumor model L1210 Leukemia (intraperitoneal) in B6D2F1 (BDF1) mice
Settings: endpoint: mean survival time, higher = longer survival
Summary of the method: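 Tumor was transplanted into mice, which were then dosed with test compound or vehicle alone. Survival was recorded for each group, and the treated figure was expressed relative to the control figure.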

[1] = dose: 25.0 mg/kg/injection, schedule: Q01DX009 (ip), vehicle: Klucel (hydroxypropylcellulose) (HPC)
[2] = dose: 50.0 mg/kg/injection, schedule: Q01DX009 (ip), vehicle: Klucel (hydroxypropylcellulose) (HPC)
[3] = dose: 100.0 mg/kg/injection, schedule: Q01DX009 (ip), vehicle: Klucel (hydroxypropylcellulose) (HPC)
[4] = dose: 100.0 mg/kg/injection, schedule: Q04DX003 (ip), vehicle: Klucel (hydroxypropylcellulose) (HPC)
[5] = dose: 200.0 mg/kg/injection, schedule: Q04DX003 (ip), vehicle: Klucel (hydroxypropylcellulose) (HPC)
[6] = dose: 400.0 mg/kg/injection, schedule: Q04DX003 (ip), vehicle: Klucel (hydroxypropylcellulose) (HPC)
[7] = dose: 100.0 mg/kg/injection, schedule: Q04DX002 (ip), vehicle: Klucel (hydroxypropylcellulose) (HPC)
[8] = dose: 200.0 mg/kg/injection, schedule: Q04DX002 (ip), vehicle: Klucel (hydroxypropylcellulose) (HPC)
[9] = dose: 25.0 mg/kg/injection, schedule: Q04DX003 (ip), vehicle: saline
[10] = dose: 50.0 mg/kg/injection, schedule: Q01DX009 (ip), vehicle: saline
[11] = dose: 50.0 mg/kg/injection, schedule: Q04DX003 (ip), vehicle: saline
[12] = dose: 100.0 mg/kg/injection, schedule: Q04DX003 (ip), vehicle: saline
[13] = dose: 100.0 mg/kg/injection, schedule: Q04DX002 (ip), vehicle: saline with Tween-80
[14] = dose: 200.0 mg/kg/injection, schedule: Q04DX002 (ip), vehicle: saline with Tween-80
[15] = dose: 400.0 mg/kg/injection, schedule: Q04DX002 (ip), vehicle: saline with Tween-80
[16] = dose: 200.0 mg/kg/injection, schedule: Q01DX009 (ip), vehicle: Klucel (hydroxypropylcellulose) (HPC)
[17] = dose: 400.0 mg/kg/injection, schedule: Q01DX009 (ip), vehicle: Klucel (hydroxypropylcellulose) (HPC)

Measured: T/C

CS(=O)(=O)OCCN(CCOS(C)(=O)=O)c1ccc(C=Nc2ccc(-c3csc(-c4ccc(Br)cc4)n3)cc2)cc1
inactive: [1] 124 % of control | [2] 114 % of control

O=[N+]([O-])c1cccc(OCCOc2ccc(S(=O)(=O)F)cc2)c1
inactive: dose: 100.0 mg/kg/injection, schedule: Q04DX003 (ip), vehicle: saline with Tween-80 106 % of control | dose: 200.0 mg/kg/injection, schedule: Q04DX003 (ip), vehicle: saline with Tween-80 88 % of control | dose: 400.0 mg/kg/injection, schedule: Q04DX003 (ip), vehicle: saline with Tween-80 93 % of control

CN(C(=S)SSC(=S)N(C)c1ccccc1)c1ccccc1
inactive: [1] 96 % of control | [2] 101 % of control | [3] 101 % of control | [4] 105 % of control | [5] 89 % of control | [6] 93 % of control

O=C(NCc1ccncc1)C(c1ccccc1)c1ccccc1
inactive: [7] 96 % of control | [8] 92 % of control

O=C1c2cccc3cccc(c23)C(=O)N1CCCN1C(=O)c2cccc3cccc(c23)C1=O
inactive: [7] 88 % of control | [8] 98 % of control

C[N+](C)(C)C1(c2ccc(F)cc2)CCCCC1
inactive: dose: 5.0 mg/kg/injection, schedule: Q01DX001 (ip), vehicle: saline 111 % of control | dose: 10.0 mg/kg/injection, schedule: Q01DX001 (ip), vehicle: saline 105 % of control | dose: 20.0 mg/kg/injection, schedule: Q01DX001 (ip), vehicle: saline 111 % of control

CC(C(=O)N1c2ccccc2Sc2ccccc21)[N+](C)(C)C (stereo not drawn)
inactive: dose: 12.5 mg/kg/injection, schedule: Q04DX003 (ip), vehicle: saline 112 % of control | dose: 25.0 mg/kg/injection, schedule: Q01DX009 (ip), vehicle: saline 100 % of control | [9] 98 % of control | [10] 102 % of control | [11] 104 % of control | [12] 104 % of control

O=C1OCC/C1=C1/CCOC1
inactive: [10] 91 % of control | dose: 100.0 mg/kg/injection, schedule: Q01DX009 (ip), vehicle: saline 102 % of control

CC1c2[nH]c3ccccc3c2CC1C(=O)O (stereo not drawn)
inactive: [13] 97 % of control | [14] 91 % of control | [15] 100 % of control

CCCc1c(OCC)c(OC)c2c3c(c(-c4c(C)cc5c(CCC)c(OCC)c(OC)c6c5c4OC6OC)c(C)cc13)OC2OC (stereo not drawn)
inactive: [3] 94 % of control | [16] 98 % of control | [17] 98 % of control

N#C/C=C/C1CCCCC1
inactive: [9] 109 % of control | [11] 107 % of control | dose: 100.0 mg/kg/injection, schedule: Q01DX001 (ip), vehicle: saline 95 % of control | [12] 105 % of control

COC1OC(COC(c2ccccc2)(c2ccccc2)c2ccccc2)C(OS(=O)(=O)c2ccc(C)cc2)C(OC(=O)c2ccccc2)C1OC(=O)c1ccccc1 (stereo not drawn)
inactive: [13] 114 % of control | [14] 97 % of control | [15] 90 % of control

COc1ccc(NC(=O)Nc2cc(Cl)ccc2OC)c(OC)c1
inactive: [3] 94 % of control | [4] 103 % of control | [16] 102 % of control | [5] 101 % of control | [17] 96 % of control | [6] 101 % of control

CCCCCNS(=O)(=O)CCCC
inactive: dose: 100.0 mg/kg/injection, schedule: Q04DX002 (ip), vehicle: other 111 % of control | dose: 200.0 mg/kg/injection, schedule: Q04DX002 (ip), vehicle: other 96 % of control | dose: 400.0 mg/kg/injection, schedule: Q04DX002 (ip), vehicle: other 103 % of control
